Test results reported in BindingDB's records for PubMed 11160644 (Merck Frosst Centre For Therapeutic Research, 2001).

Biological target: T1, Solute carrier organic anion transporter family member 1B1 (Homo sapiens, UniProt Q9Y6L6)
T1 sequence (Q9Y6L6 whole entry): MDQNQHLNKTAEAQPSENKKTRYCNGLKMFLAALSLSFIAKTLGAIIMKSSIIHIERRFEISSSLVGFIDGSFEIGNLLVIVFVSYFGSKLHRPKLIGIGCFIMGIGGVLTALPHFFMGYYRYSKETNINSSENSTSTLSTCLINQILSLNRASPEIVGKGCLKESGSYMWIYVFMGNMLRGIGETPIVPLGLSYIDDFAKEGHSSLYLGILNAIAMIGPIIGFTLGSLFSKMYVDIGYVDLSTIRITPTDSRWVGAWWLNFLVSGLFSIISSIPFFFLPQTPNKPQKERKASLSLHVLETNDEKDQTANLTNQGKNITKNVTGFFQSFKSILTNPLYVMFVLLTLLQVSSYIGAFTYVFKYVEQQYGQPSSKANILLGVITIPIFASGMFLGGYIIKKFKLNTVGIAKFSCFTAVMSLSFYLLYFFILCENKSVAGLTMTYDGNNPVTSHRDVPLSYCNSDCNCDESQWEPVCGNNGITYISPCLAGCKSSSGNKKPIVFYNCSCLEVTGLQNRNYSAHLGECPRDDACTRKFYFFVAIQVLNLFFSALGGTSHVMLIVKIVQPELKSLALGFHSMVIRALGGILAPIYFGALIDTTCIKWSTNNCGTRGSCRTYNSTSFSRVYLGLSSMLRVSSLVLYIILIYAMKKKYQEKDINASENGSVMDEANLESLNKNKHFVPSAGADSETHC

Ki [nM]	SMILES
2	COc1ccc2c(c1)c(CC(=O)O)c(C)n2C(=O)c1ccc(Cl)cc1 [indometacin]
> 10000	Cc1ccc(-c2ncc(Cl)cc2-c2ccc(S(C)(=O)=O)cc2)cn1
